Reference: patent publication US10407409B2, “6-(5-hydroxy-1H-pyrazol-1-yl)nicotinamide inhibitors of PHD” (Takeda Pharmaceutical Company Limited, priority 2013, dated 2019)

Tests used:
[1] = molecular target: PHD2 enzyme (residues 181-417) (Homo sapiens (Human), UniProt Q9GZT9); experiment: Inhibition of PHD enzyme (LC/MS peptide hydroxylation assay); assay type: biochemical; conditions: PHD2 (residues 181-417) 5 nM, 60 min pre-incubation, -log(IC50), IC50 molar; for IC50: read-out: PHD Inhibition (pIC50) (converted)
Sequence of PHD2 enzyme (residues 181-417) (Q9GZT9 181-417): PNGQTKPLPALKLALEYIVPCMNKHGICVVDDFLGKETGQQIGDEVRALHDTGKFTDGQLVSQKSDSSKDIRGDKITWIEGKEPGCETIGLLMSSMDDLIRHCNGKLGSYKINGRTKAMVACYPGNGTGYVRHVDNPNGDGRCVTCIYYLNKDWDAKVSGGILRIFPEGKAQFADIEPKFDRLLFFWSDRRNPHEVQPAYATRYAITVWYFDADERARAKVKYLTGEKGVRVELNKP
Description: Example A Inhibition of PHD Enzyme
The IC50 values for the PHD2 enzyme (residues 181-417) were determined by mixing increasing amounts of inhibitor with a fixed amount of enzyme (5 nM, final concentration) and Biotin labeled peptide (Biotin-Asp-Leu-Glu-Met-Leu-Ala-Pro-Tyr-Ile-Pro-Met-Asp-Asp-Asp-Phe-Gln-Leu, 1 uM final concentration) and 2-Oxyglutarate (2 uM final concentration) in 50 mM HEPES, 50 mM KCl, 0.5 mM TCEP, 2 uM FeCl2, 0.1 mg/ml BSA, at pH 7.3. The reaction was conducted by pre-incubating the enzyme in the presence of inhibitor for 60 min at room temperature. The activity of the free enzyme was measured by adding the peptide, the 2-Oxoglutarate (see above for final concentrations), and Ascorbic Acid (1 mM final concentration). The enzymatic activity was quenched after 60 min by adding an excess of a tight binding inhibitor to the assay mixture. The amount of product released was measured by using a LC/MS system (Agilent HPLC with Applied Biosystems API3000 Mass Spectrometer). Data were analyzed using the classical isotherm equation for the determination of IC50 values and are pIC50, i.e., −log(IC50), where IC50 is molar concentration and are reported as pIC50, i.e., −log(IC50), where IC50 is molar concentration.

[2] = test system: HIF1a protein in H9c2 rat cardiomyocytes; experiment: Cell-based HIF-alpha stabilization assay (inhibition of PHD in cells); conditions: 24 hrs compound incubation, HIF1a protein by ELISA; for EC50: Rattus norvegicus, H9c2, 24 h, read-out: Inhibition of PHD in cells (pEC50) (converted)
Description: Example B Inhibition of PHD in Cells
PHD Inhibition is Determined Using (Secondary Assay)
Cell-Based HIF-Alpha Stabilization Assay:
H9c2 rat cardiomyocytes (ATCC) were seeded in 96-well tissue culture microplates and cultured for 24 hours prior to addition of compounds (11 point range of serial dilutions) or dimethylsulfoxide vehicle. After 24 hrs of compound incubation, whole cell extracts were prepared by lysing cells in cell extraction buffer containing protease and phosphatase inhibitors (Meso-Scale Discovery). HIF1a protein content was assessed by ELISA (Meso-Scale Discovery) and expressed as a % relative to the maximum response obtained from the positive control, desferrioxamine (Sigma-Aldrich). Compound EC50s were obtained by curve-fitting using XLfit4 MicroSoft Excel curve-fitting software. Compound EC50pos were obtained using XLfit4 to calculate the compound concentration that results in 50% of the desferrioxamine maximum response.

Structure (SMILES) | IC50 [1] | EC50 [2] | PHD Inhibition (pIC50) [1] | Inhibition of PHD in cells (pEC50) [2]
Cc1cc(C#N)ccc1-c1cnn(-c2ccc(C(=O)N3CCN4CCCC4C3)cn2)c1O (racemic) [Example 288, (+/−)-4-(5-hydroxy-1-(5-(octahydropyrrolo[1,2-a]pyrazine-2-carbonyl)pyridin-2-yl)-1H-pyrazol-4-yl)-3-methylbenzonitrile] | 3.31 nM | 575 nM | – | –
CCN(C)CC1CCN(C(=O)c2ccc(-n3ncc(-c4ccc(C#N)cc4C)c3O)nc2)C1 (racemic) [Example 295, (+/−)-4-(1-(5-(3-((ethyl(methyl)amino)methyl)pyrrolidine-1-carbonyl)pyridin-2-yl)-5-hydroxy-1H-pyrazol-4-yl)-3-methylbenzonitrile] | 14.1 nM | 339 nM | – | –
CC(NC(=O)c1ccc(-n2ncc(-c3ccc(C#N)cc3)c2O)nc1)C1CC1 (stereo in doubt) [Example 260, (S)-6-(4-(4-cyanophenyl)-5-hydroxy-1H-pyrazol-1-yl)-N-(1-cyclopropylethyl)nicotinamide] | – | – | 7.17 | 6.23
Cc1cc(C#N)ccc1-c1cnn(-c2ccc(C(=O)N3CCCC(N(C)C4CC4)C3)cn2)c1O (stereo in doubt) [Example 386, (S)-4-(1-(5-(3-(cyclopropyl(methyl)amino)piperidine-1-carbonyl)pyridin-2-yl)-5-hydroxy-1H-pyrazol-4-yl)-3-methylbenzonitrile] | – | – | 8.23 | 6.15
COc1cc(-c2cnn(-c3ccc(C(=O)NCc4ccccc4)cn3)c2O)ccn1 [Example 2, N-benzyl-6-(5-hydroxy-4-(2-methoxypyridin-4-yl)-1H-pyrazol-1-yl)nicotinamide] | – | 1260 nM | 7.03 | –
COCC1(NC(=O)c2ccc(-n3ncc(-c4ccnc(OC)c4)c3O)nc2)CCCC1 [Example 3, 6-(5-hydroxy-4-(2-methoxypyridin-4-yl)-1H-pyrazol-1-yl)-N-(1-(methoxymethyl)cyclopentyl)nicotinamide] | – | 724 nM | 7.3 | –
COc1cc(-c2cnn(-c3ccc(C(=O)NC4(C)CC4)cn3)c2O)ccn1 [Example 4, 6-(5-hydroxy-4-(2-methoxypyridin-4-yl)-1H-pyrazol-1-yl)-N-(1-methylcyclopropyl)nicotinamide] | – | 525 nM | 6.92 | –
COc1cc(-c2cnn(-c3ccc(C(=O)NC(C)C)cn3)c2O)ccn1 [Example 5, 6-(5-hydroxy-4-(2-methoxypyridin-4-yl)-1H-pyrazol-1-yl)-N-isopropylnicotinamide] | – | 562 nM | 7.01 | –
COc1cc(-c2cnn(-c3ccc(C(=O)NCC(C)C)cn3)c2O)ccn1 [Example 6, 6-(5-hydroxy-4-(2-methoxypyridin-4-yl)-1H-pyrazol-1-yl)-N-isobutylnicotinamide] | – | 955 nM | 7.02 | –
COc1cc(-c2cnn(-c3ccc(C(=O)NCCOC(C)C)cn3)c2O)ccn1 [Example 7, 6-(5-hydroxy-4-(2-methoxypyridin-4-yl)-1H-pyrazol-1-yl)-N-(2-isopropoxyethyl)nicotinamide] | – | 1000 nM | 7.03 | –
CCCNC(=O)c1ccc(-n2ncc(-c3ccnc(OC)c3)c2O)nc1 [Example 8, 6-(5-hydroxy-4-(2-methoxypyridin-4-yl)-1H-pyrazol-1-yl)-N-propylnicotinamide] | – | 603 nM | 7.03 | –
COc1cc(-c2cnn(-c3ccc(C(=O)N[C@H]4CC[C@@H](OC)CC4)cn3)c2O)ccn1 [Example 9, 6-(5-hydroxy-4-(2-methoxypyridin-4-yl)-1H-pyrazol-1-yl)-N-((1s,4s)-4-methoxycyclohexyl)nicotinamide] | – | 525 nM | 7.5 | –
CC[C@H](C)NC(=O)c1ccc(-n2ncc(-c3ccnc(OC)c3)c2O)nc1 [Example 10, (S)—N-(sec-butyl)-6-(5-hydroxy-4-(2-methoxypyridin-4-yl)-1H-pyrazol-1-yl)nicotinamide] | – | 676 nM | 7.09 | –
CCOCCCNC(=O)c1ccc(-n2ncc(-c3ccnc(OC)c3)c2O)nc1 [Example 12, N-(3-ethoxypropyl)-6-(5-hydroxy-4-(2-methoxypyridin-4-yl)-1H-pyrazol-1-yl)nicotinamide] | – | 661 nM | 7.44 | –
COc1cc(-c2cnn(-c3ccc(C(=O)NC4CCC4)cn3)c2O)ccn1 [Example 13, N-cyclobutyl-6-(5-hydroxy-4-(2-methoxypyridin-4-yl)-1H-pyrazol-1-yl)nicotinamide] | – | 417 nM | 7.15 | –
COCC1(CNC(=O)c2ccc(-n3ncc(-c4ccnc(OC)c4)c3O)nc2)CC1 [Example 14, 6-(5-hydroxy-4-(2-methoxypyridin-4-yl)-1H-pyrazol-1-yl)-N-((1-(methoxymethyl)cyclopropyl)methyl)nicotinamide] | – | 871 nM | 7.27 | –
COc1cc(-c2cnn(-c3ccc(C(=O)NC4CCOCC4)cn3)c2O)ccn1 [Example 15, 6-(5-hydroxy-4-(2-methoxypyridin-4-yl)-1H-pyrazol-1-yl)-N-(tetrahydro-2H-pyran-4-yl)nicotinamide] | – | 646 nM | 7.21 | –
COc1cc(-c2cnn(-c3ccc(C(=O)N[C@@H](C)C4CCOCC4)cn3)c2O)ccn1 [Example 16, (S)-6-(5-hydroxy-4-(2-methoxypyridin-4-yl)-1H-pyrazol-1-yl)-N-(1-(tetrahydro-2H-pyran-4-yl)ethyl)nicotinamide] | – | 200 nM | 7.38 | –
C[C@@H](NC(=O)c1ccc(-n2ncc(-c3ccc(C#N)cc3)c2O)nc1)C1CC1 [Example 88, (R)-6-(4-(4-cyanophenyl)-5-hydroxy-1H-pyrazol-1-yl)-N-(1-cyclopropylethyl)nicotinamide] | – | – | – | 5.50
COCC1(NC(=O)c2ccc(-n3ncc(-c4ccc(C#N)cc4C)c3O)nc2)CC1 [Example 118A, 6-(4-(4-cyano-2-methylphenyl)-5-hydroxy-1H-pyrazol-1-yl)-N-(1-(methoxymethyl)cyclopropyl)nicotinamide] | – | 79.4 nM | – | –
COCCNC(=O)c1cnc(-n2ncc(-c3ccc(C#N)cc3)c2O)cc1C [Example 276, 6-(4-(4-cyanophenyl)-5-hydroxy-1H-pyrazol-1-yl)-N-(2-methoxyethyl)-4-methylnicotinamide] | – | 3630 nM | – | –
CCN1CCC(CN(C)C(=O)c2ccc(-n3ncc(-c4ccc(C#N)cc4)c3O)nc2)C1 (stereo not drawn) [Example 366, 6-(4-(4-cyanophenyl)-5-hydroxy-1H-pyrazol-1-yl)-N-((1-ethylpyrrolidin-3-yl)methyl)-N-methylnicotinamide] | – | 3800 nM | – | –
CCCN1CCN(C(=O)c2ccc(-n3ncc(-c4ccc(C#N)cc4C)c3O)nc2)C[C@@H]1C [Example 374, (S)-4-(5-hydroxy-1-(5-(3-methyl-4-propylpiperazine-1-carbonyl)pyridin-2-yl)-1H-pyrazol-4-yl)-3-methylbenzonitrile] | – | 100 nM | – | –
Cc1cc(C#N)ccc1-c1cnn(-c2ccc(C(=O)N3CCN(C)C[C@@H]3C)cn2)c1O [Example 391, (S)-4-(1-(5-(2,4-dimethylpiperazine-1-carbonyl)pyridin-2-yl)-5-hydroxy-1H-pyrazol-4-yl)-3-methylbenzonitrile] | – | 1550 nM | – | –
